We go through 52 compounds from patent US20250236613A1, “SARM1 MODULATORS, PREPARATIONS, AND USES THEREOF” (SIRONAX LTD., priority 2021, published 2025).

pIC50: −log10 of the molar value.

Chain of SARM1 (50-724) (Q6SZW1 50-724): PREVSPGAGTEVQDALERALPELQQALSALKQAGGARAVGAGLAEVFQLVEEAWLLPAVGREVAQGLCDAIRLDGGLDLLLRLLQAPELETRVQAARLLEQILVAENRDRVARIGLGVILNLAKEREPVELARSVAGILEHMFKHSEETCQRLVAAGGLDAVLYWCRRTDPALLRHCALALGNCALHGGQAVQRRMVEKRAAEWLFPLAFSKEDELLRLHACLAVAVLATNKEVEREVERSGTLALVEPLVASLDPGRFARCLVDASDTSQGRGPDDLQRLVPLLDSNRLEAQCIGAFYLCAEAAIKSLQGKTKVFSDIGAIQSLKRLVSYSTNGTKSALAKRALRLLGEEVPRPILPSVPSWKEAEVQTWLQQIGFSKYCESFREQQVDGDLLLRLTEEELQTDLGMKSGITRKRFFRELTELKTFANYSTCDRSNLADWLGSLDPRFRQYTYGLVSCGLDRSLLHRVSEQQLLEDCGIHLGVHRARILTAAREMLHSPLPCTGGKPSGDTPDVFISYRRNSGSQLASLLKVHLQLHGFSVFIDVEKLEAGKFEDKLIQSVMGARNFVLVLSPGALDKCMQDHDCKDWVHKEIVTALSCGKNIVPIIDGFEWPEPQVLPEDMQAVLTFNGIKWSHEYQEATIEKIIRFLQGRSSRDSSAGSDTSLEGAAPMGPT

The assay addresses SARM1 (50-724) (Homo sapiens (Human), UniProt Q6SZW1). Put plainly: SARM1 (50-724) enzymatic assay. Type of assay: biochemical. As to conditions: SARM1 inhibitory activity; 2 nM SARM1 (50-724), 200 μM NMN activator, 100 μM NAD+ substrate, 1 h, LC-MS/MS. As to the method: The enzymatic assay was performed in a 384-well plate using Dulbecco's PBS buffer as the reaction buffer. Purified SARM1 (50-724) with a final concentration of 2 nM was pre-incubated with the test compound at 1% DMSO final assay concentration for 15 min at room temperature. The reaction was initiated by adding the mixture of 200 μM NMN as activator and 100 μM NAD^+ as substrate. After 1 h of incubation at room temperature, the reaction was terminated with 10 times volume of 70% acetonitrile, then centrifuged at 3800 rpm for 10 min. The samples were analyzed using LC-MS/MS after diluted to the proper concentration by 10 mM ammonium acetate (pH 9.75).
As a reminder, the pIC50 is the IC50 on a negative log10 scale, so that one unit is a factor of ten. Lower therefore signals a large IC50. Compound `Cc1ccncc1-c1ccc2c(c1)C(=O)NCC2` [Compound 18, 7-(4-methylpyridin-3-yl)-3,4-dihydroisoquinolin-1(2H)-one] gave a pIC50 of 4.52 to 4.82.

For `Cc1ncncc1-c1ccc2[nH]c(=O)oc2c1` [Compound 78, 6-(4-methylpyrimidin-5-yl)benzo[d]oxazol-2(3H)-one], the pIC50 is below 4.52. As for `Cc1cc(C)c(-c2ccc3[nH]c(=O)oc3c2)cn1` [Compound 67, 6-(4,6-dimethylpyridin-3-yl)benzo[d]oxazol-2(3H)-one], the figure is 4.52 to 4.82; as for `Cc1ccncc1-c1cc(O)cc(C#N)c1` [Compound 5, 3-hydroxy-5-(4-methylpyridin-3-yl)benzonitrile], above 5.30; as for `Cc1ccncc1-c1ccc2[nH]c(=O)[nH]c2c1` [Compound 44, 5-(4-methylpyridin-3-yl)-1,3-dihydro-2H-benzo[d]imidazol-2-one], above 5.30. As for `O=c1[nH]c2ccc(-c3cncc(Nc4cccc(O)c4)c3)cc2o1` [Compound 95, 6-(5-((3-hydroxyphenyl)amino)pyridin-3-yl)benzo[d]oxazol-2(3H)-one], the figure is above 5.30; as for `Cc1ccncc1-c1ccc(O)c(F)c1` [Compound 11, 2-fluoro-4-(4-methylpyridin-3-yl)phenol], below 4.52; as for `Cc1ccncc1-c1ccc(O)c(C#N)c1` [Compound 6, 2-hydroxy-5-(4-methylpyridin-3-yl)benzonitrile], above 5.30. `Cc1ccncc1-c1ccc2c(c1)NCCO2` [Compound 54, 6-(4-methylpyridin-3-yl)-3,4-dihydro-2H-benzo[b][1,4]oxazine]: the pIC50 was 4.52 to 4.82. With `Nc1cncc(-c2ccc3[nH]c(=O)oc3c2)c1` [Compound 77, 6-(5-aminopyridin-3-yl)benzo[d]oxazol-2(3H)-one], the pIC50 was 4.82 to 5.30.

Compound `Cc1ccncc1-c1cc(F)c(O)c(Cl)c1` [Compound 61, 2-chloro-6-fluoro-4-(4-methylpyridin-3-yl)phenol] had a negative-log IC50 (pIC50) of 4.82 to 5.30. With `Cc1ccncc1-c1cc(O)cc(Cl)c1` [Compound 60, 3-chloro-5-(4-methylpyridin-3-yl)phenol], the pIC50 was above 5.30. Compound `Cc1ccncc1-c1cc[nH]c(=O)c1` [Compound 2, 4-methyl-[3,4′-bipyridin]-2′(1′H)-one] showed a pIC50 above 5.30. As for `O=c1[nH]c2ccc(-c3cncc(Nc4cccc(Cl)c4)c3)cc2o1` [Compound 96, 6-(5-((3-chlorophenyl)amino)pyridin-3-yl)benzo[d]oxazol-2(3H)-one], the figure is above 5.30; as for `COc1ccncc1-c1ccc2[nH]c(=O)oc2c1` [Compound 90, 6-(4-methoxypyridin-3-yl)benzo[d]oxazol-2(3H)-one], above 5.30; as for `Cc1c[nH]c(=O)cc1-c1ccc2[nH]c(=O)oc2c1` [Compound 82, 6-(5-methyl-2-oxo-1,2-dihydropyridin-4-yl)benzo[d]oxazol-2(3H)-one], 4.52 to 4.82. In turn, `Cc1ccncc1-c1ccc2c(c1)C(=O)C(=O)N2` [Compound 76, 5-(4-methylpyridin-3-yl)indoline-2,3-dione] gave a pIC50 above 5.30. The compound `Cc1cc(Nc2cncc(-c3ccc4[nH]c(=O)oc4c3)c2)n(C)n1` [Compound 117, 6-(5-((1,3-dimethyl-1H-pyrazol-5-yl)amino)pyridin-3-yl)benzo[d]oxazol-2(3H)-one] had a pIC50 above 5.30.

Regarding `O=c1[nH]c2ccc(-c3cncc(Nc4nccs4)c3)cc2o1` [Compound 115, 6-(5-(thiazol-2-ylamino)pyridin-3-yl)benzo[d]oxazol-2(3H)-one], the pIC50 was above 5.30. `Cc1ccc(-c2cnccc2C)cc1O` [Compound 32, 2-methyl-5-(4-methylpyridin-3-yl)phenol] showed a pIC50 above 5.30. In turn, `CC(=O)c1ccc(-c2cnccc2C)cc1O` [Compound 38, 1-(2-hydroxy-4-(4-methylpyridin-3-yl)phenyl)ethan-1-one] gave a pIC50 of 4.82 to 5.30. `Cc1ccncc1-c1ccc2[nH]c(=O)[nH]c(=O)c2c1` [Compound 120, 6-(4-methylpyridin-3-yl)quinazoline-2,4(1H,3H)-dione] showed a pIC50 above 5.30. In turn, `Cc1ccncc1-c1cc(O)ccc1F` [Compound 14, 4-fluoro-3-(4-methylpyridin-3-yl)phenol] had a pIC50 below 4.52. Compound `Cc1ccncc1-c1ccc(O)cc1` [Compound 9, 4-(4-methylpyridin-3-yl)phenol] had a pIC50 above 5.30. `Cc1ccncc1-c1ccc2[nH]c(N)nc2c1` [Compound 64, 5-(4-methylpyridin-3-yl)-1H-benzo[d]imidazol-2-amine] showed a pIC50 above 5.30. As for `Cc1ccncc1-c1cccc(S(N)(=O)=O)c1` [Compound 7, 3-(4-methylpyridin-3-yl)benzenesulfonamide], the pIC50 was above 5.30. Compound `Cn1cc(Nc2cncc(-c3ccc4[nH]c(=O)oc4c3)c2)cn1` [Compound 108, 6-(5-((1-methyl-1H-pyrazol-4-yl)amino)pyridin-3-yl)benzo[d]oxazol-2(3H)-one] gave a pIC50 above 5.30. Compound `Cc1ccncc1-c1ccc2c(c1)NC(=O)CO2` [Compound 51, 6-(4-methylpyridin-3-yl)-2H-benzo[b][1,4]oxazin-3(4H)-one] showed a pIC50 above 5.30.

Turning to `Cc1ccncc1-c1ccc(O)c(N)c1` [Compound 43, 2-amino-4-(4-methylpyridin-3-yl)phenol], the pIC50 was 4.82 to 5.30. For `COc1cc(-c2cnccc2C)ccc1O` [Compound 30, 2-methoxy-4-(4-methylpyridin-3-yl)phenol], the pIC50 was below 4.52. The compound `Cc1ccncc1-c1ccc(O)c(O)c1` [Compound 47, 4-(4-methylpyridin-3-yl)benzene-1,2-diol] gave a pIC50 above 5.30. As for `Cc1ccncc1-c1ccc2[nH]ncc2c1F` [Compound 74, 4-fluoro-5-(4-methylpyridin-3-yl)-1H-indazole], the pIC50 is 4.52 to 4.82.

On to `Cc1ccncc1-c1ccc2c(c1)CC(=O)N2` [Compound 41, 5-(4-methylpyridin-3-yl)indolin-2-one], for which the pIC50 was above 5.30. With `Cc1ccncc1-c1cc2cn[nH]c2cn1` [Compound 49, 5-(4-methylpyridin-3-yl)-1H-pyrazolo[3,4-c]pyridine] the figure was below 4.52; with `Cc1ccncc1-c1cc2cc[nH]c2cc1F` [Compound 34, 6-fluoro-5-(4-methylpyridin-3-yl)-1H-indole], below 4.52. In turn, `O=c1[nH]c2ccc(-c3cncc(Nc4cncnc4)c3)cc2o1` [Compound 114, 6-(5-(pyrimidin-5-ylamino)pyridin-3-yl)benzo[d]oxazol-2(3H)-one] had a negative logarithm of the IC50 (pIC50) above 5.30. `O=c1cc(-c2cccnc2)cc[nH]1` [Compound 1, [3,4′-bipyridin]-2′(1′H)-one]: the pIC50 is 4.82 to 5.30.

For the compound `O=c1[nH]c2ccc(-c3cncc(Nc4ccccc4F)c3)cc2o1` [Compound 102, 6-(5-((2-fluorophenyl)amino)pyridin-3-yl)benzo[d]oxazol-2(3H)-one], the pIC50 was above 5.30.

On to `O=c1[nH]c2ccc(-c3cncc(Nc4ccccc4)c3)cc2o1` [Compound 87, 6-(5-(phenylamino)pyridin-3-yl)benzo[d]oxazol-2(3H)-one], for which the pIC50 is above 5.30. `O=c1[nH]c2ccc(-c3cncc(Nc4ccncc4)c3)cc2o1` [Compound 111, 6-(5-(pyridin-4-ylamino)pyridin-3-yl)benzo[d]oxazol-2(3H)-one] gave a pIC50 above 5.30.

In turn, `Cc1ccncc1-c1ccc2c(c1)OCC(=O)N2` [Compound 45, 7-(4-methylpyridin-3-yl)-2H-benzo[b][1,4]oxazin-3(4H)-one] showed a pIC50 of 4.82 to 5.30. Regarding `Cc1ccncc1-c1ccc2[nH]c(C#N)cc2c1` [Compound 88, 5-(4-methylpyridin-3-yl)-1H-indole-2-carbonitrile], the negative logarithm of the IC50 (pIC50) was above 5.30. `Cc1ccncc1-c1ccc(N)c(O)c1` [Compound 42, 2-amino-5-(4-methylpyridin-3-yl)phenol] showed a pIC50 above 5.30. Regarding `Cc1ccncc1-c1ccc2[nH]c(C#N)nc2c1` [Compound 89, 5-(4-methylpyridin-3-yl)-1H-benzo[d]imidazole-2-carbonitrile], the pIC50 is above 5.30. As for `CCc1cc(-c2cnccc2C)ccc1O` [Compound 29, 2-ethyl-4-(4-methylpyridin-3-yl)phenol], the figure is above 5.30. Turning to `Cc1ccncc1-c1ccc(O)c(O)c1F` [Compound 39, 3-fluoro-4-(4-methylpyridin-3-yl)benzene-1,2-diol], the pIC50 is 4.52 to 4.82.

`Cc1ccncc1-c1cc(O)cc(Br)c1` [Compound 16, 3-bromo-5-(4-methylpyridin-3-yl)phenol] gave a pIC50 above 5.30. Take `COc1cccc(Nc2cncc(-c3ccc4[nH]c(=O)oc4c3)c2)c1` [Compound 97, 6-(5-((3-methoxyphenyl)amino)pyridin-3-yl)benzo[d]oxazol-2(3H)-one]: the pIC50 was above 5.30. `Cc1ccncc1-c1ccc2nc(N)ncc2c1` [Compound 71, 6-(4-methylpyridin-3-yl)quinazolin-2-amine] showed a pIC50 of 4.52 to 4.82.

`O=c1[nH]c2ccc(-c3cncc(Nc4ccc5c(c4)NCCC5)c3)cc2o1` [Compound 99, 6-(5-((1,2,3,4-tetrahydroquinolin-7-yl)amino)pyridin-3-yl)benzo[d]oxazol-2(3)-one] gave a negative logarithm of the IC50 (pIC50) above 5.30. In the case of `O=c1[nH]c2ccc(-c3cncc(Oc4ccccc4)c3)cc2o1` [Compound 119, 6-(5-phenoxypyridin-3-yl)benzo[d]oxazol-2(3H)-one], the pIC50 is above 5.30. Turning to `Cc1ccncc1-c1ccc2[nH]nnc2c1` [Compound 36, 5-(4-methylpyridin-3-yl)-1H-benzol[d][1,2,3]triazole], the pIC50 was above 5.30.
